Data set [1] concerns KRAS^G12D PDAC cell lines. Kind of data set: Western blot time course of RAS signalling in KRAS^G12D PDAC cell lines. The format is cell-based, human. As to conditions: KRAS^G12D PDAC cells in culture, 2 h to 48 h. How it is done:
Total ERK and vinculin were used as loading controls. […] Source Data
Cells were lysed with MSD Tris Lysis Buffer (MSD, R60TX-2) or a buffer of 1% Triton X-100, 20 mM Tris-HCl, 150 mM NaCl, and 1 mM EDTA, both supplemented with protease and phosphatase inhibitors. Lysates were cleared by centrifugation and quantified by BCA assay (Pierce, 23225). […] Image Studio Lite (Version 5.2.5) and Image Lab (Version 6.1.0 build 7) software were used for data analysis.
For orientation: Immunoblotting shows a protein as a band on a membrane.

The subject of data set [2] is Pa16C cells expressing MEK1 mutants. Kind of data set: Proliferation (Calcein AM) of Pa16C cells expressing MEK1 mutants. The format is cell-based, human.
Data set [3] is described as follows: Oral bioavailability in mice (LC-MS/MS of blood). Format: in vivo. As to conditions: mouse, whole blood, read-out: Oral Bioavailability m%F.
The test system of data set [4] is Capan-1 cells. As to the kind of experiment: Cellular ERK phosphorylation (pERK). Particulars: Homo sapiens; Capan-1 (KRAS^G12V PDAC); (95% CI). The format is cell-based.
Data set [5] deals with A375 cells. As to the kind of experiment: Cell proliferation (CTG). Format: cell-based, human. Particulars: Homo sapiens, A-375; A375, CTG; (95% CI). The procedure: (§1) Alternatively, cells were seeded in round-bottom ultra-low attachment 96-well plates, centrifuged at 1,000 rpm for 10 min to pellet the cells, and incubated overnight or up to 72 h to allow for 3D spheroid formation. […] Cell viability was determined by CellTiter-Glo 2.0 reagent (2D CTG) (Promega, G9243) or 3D CellTiter-Glo reagent (3D CTG) (Promega, G9683) according to the manufacturer’s protocols. Luminescence was detected using a SpectraMax M5 Plate Reader (Molecular Devices) of Perkin Elmer Enspire. Luminescence signal was normalized to vehicle-treated wells (normalized signal (%) = (luminescence (treated)/mean luminescence (vehicle)) × 100%). […] Data were plotted as log [inhibitor (M)], and a four-parameter sigmoidal concentration response model was fitted to the data to calculate EC50. […] Pa16C MEK1 mutant cells were evaluated by live-cell counting using Calcein AM and a SpectraMax i3X multi-mode detection platform (Molecular Devices). Growth percentages were calculated by normalizing the treated cell counts to their respective untreated cell counts.

In data set [6] the target is T1, KRAS^G12V (Homo sapiens, UniProt P01116+P62937, G12V). As to the kind of experiment: Biochemical RAS–RAF (BRAF RBD) disruption, TR-FRET. Also on record: His6-TEV (N); made in house; host or cells: BL21(DE3) Escherichia coli. The text has this: Time-resolved fluorescence resonance energy transfer (TR-FRET) was used as previously described to assess disruption of the interactions between wild-type RAS or the mutant oncogenic RAS proteins and the RAS-binding domain of BRAF, and to assess the induction of interactions between the RAS proteins and CYPA[12].

The subject of data set [7] is Capan-1 cells. As to the kind of experiment: Cell proliferation (CTG). Particulars: Homo sapiens; Capan-1, CTG; (95% CI). The format is cell-based. The procedure:
as §1

Data set [8] has as its target T1, KRAS^G12V. Kind of data set: RAS binding affinity of compound-bound CYPA (Kd2), SPR. Particulars: steady state, (95% CI). Also on record: His6-TEV (N); made in house; host or cells: BL21(DE3) Escherichia coli.
Data set [9] has as its system A375 cells. As to the kind of experiment: Cellular ERK phosphorylation (pERK). Particulars: Homo sapiens, A-375; A375 (BRAF^V600E). Format: cell-based, human.
For another data set, the target named is T2, CYPA (Homo sapiens, UniProt P62937).
T2 construct: His6-TEV-AviTag-CYPA (full-length); His6-TEV (N); made in house; host or cells: BL21(DE3) Escherichia coli
Kind of data set: CYPA binding affinity (Kd1), SPR. Particulars: steady state, (95% CI). The procedure: The binding affinity of compounds for CYPA (Kd1) was assessed by SPR on a Biacore 8K instrument as previously described.

Values joined by “and” are separate entries in the source; they are usually repeats but may differ in a detail not shown here. Equal entries are not always repeated.

For `C#Cc1c(F)ccc2cc(O)cc(-c3ncc4c(N5CC6CCC(C5)N6)nc(OC[C@@]56CCCN5C[C@H](F)C6)nc4c3F)c12` [MRTX1133, reference compound], the “pERK suppression over time” value in data set [1] was “rebounded by 48 h”. The “Proliferation of Pa16C cells expressing MEK1 mutant constructs” value (from here on “Proliferation”) in data set [2] (MEK1E102-I103del, inhibitor 0.046 nM) is 125.8 and 122.1 and 120.54 and 95.05; in data set [2] (MEK1E102-I103del, inhibitor 0.412 nM) it was 113.2 and 113.4 and 113.54 and 82.15; in [2] (MEK1E102-I103del, inhibitor 1.235 nM), 110 and 114.8 and 110.17 and 83.99; in data set [2] (MEK1E102-I103del, inhibitor 3.704 nM) it was 89.5 and 104.7 and 87.18 and 77.13; in data set [2] (MEK1K57N, inhibitor 0.046 nM) it was 113.3 and 92 and 123.41 and 119.36; in data set [2] (MEK1K57N, inhibitor 0.412 nM) it was 108.9 and 110.1 and 130.35 and 129.87. Besides, the “Proliferation” value in data set [2] (MEK1K57N, inhibitor 1.235 nM) is 119.4 and 130.2 and 127.87 and 133.27; in data set [2] (MEK1K57N, inhibitor 3.704 nM), 112.2 and 126.4 and 116.3 and 122.06; in [2] (MEK1Q56P, inhibitor 0.046 nM) it was 116.6 and 110 and 105 and 106.72; in [2] (MEK1Q56P, inhibitor 0.412 nM), 113.89 and 123.5 and 112.2 and 128.92; in [2] (MEK1Q56P, inhibitor 1.235 nM), 123.05 and 112.4 and 128.9 and 131.08; in data set [2] (MEK1Q56P, inhibitor 3.704 nM), 108.45. Besides, the “Proliferation” value was 106.52 and 116.35 and 117.97 and 101.1 in [2] (MEK1S218D/S222D, inhibitor 0.046 nM); 107.39 and 112.33 and 125.31 and 99.77 in [2] (MEK1S218D/S222D, inhibitor 0.412 nM); 101.82 and 118.84 and 117.94 and 98.18 in data set [2] (MEK1S218D/S222D, inhibitor 1.235 nM); 93.55 and 118.16 and 86.21 and 93.79 in data set [2] (MEK1S218D/S222D, inhibitor 3.704 nM); 112.3 and 102.3 and 116.1 and 105.31 and 102.33 in data set [2] (MEK1WT, inhibitor 0.046 nM); 119.4 and 93.5 and 109.72 and 103.89 and 97.19 in data set [2] (MEK1WT, inhibitor 0.412 nM). For the same compound, the “Proliferation” value in data set [2] (MEK1WT, inhibitor 1.235 nM) is 110 and 85.2 and 91.69 and 105.96 and 84.4; in [2] (MEK1WT, inhibitor 3.704 nM) it was 88.3 and 70.7 and 61.19.

By bioavailability is commonly meant dose-corrected exposure relative to a reference, in per cent. A word on the EC50: it is the concentration giving half of the maximal effect. The low end stands for higher potency in that assay, the high end for lower potency in that assay. As usually defined, the Kd is the free concentration of one partner at which half of the binding sites on the other are occupied at equilibrium, for simple one-to-one binding. A high value points to a looser complex. Consider `CCn1c(-c2cccnc2[C@H](C)OC)c2c3cc(ccc31)-c1cccc(c1)C[C@H](NC(=O)[C@H](C(C)C)N(C)C(=O)[C@H]1CCN(C(C)=O)C1)C(=O)N1CCC[C@H](N1)C(=O)OCC(C)(C)C2` [Compound 1], for which the bioavailability in [3] is 5%. Besides, the EC50 in the data set on Capan-1 cells [4] is 0.632 µM; with A375 cells [5], 6.41 µM; at KRAS^G12V [6], 4.4 µM; with Capan-1 cells [7], 0.965 µM; with A375 cells [9], greater than 10 µM. For the same compound, the Kd at KRAS^G12V [8] turned out to be 6.55 µM; on CYPA it was 0.862 µM.

These data come from PMC11111408, “Concurrent inhibition of oncogenic and wild-type RAS-GTP for cancer therapy” (Nature, 2024).
